Like-named read-outs stand apart in the source and are kept apart here.
How the values were obtained:
[1] = Hygroscopicity of solid forms (statement only); format: physicochemical
[2] = 25° C. ± 2° C. 60% RH ± 5RH, 1 Month
[3] = 25° C. ± 2° C. 60% RH ± 5RH, 3 Months
[4] = 25° C. ± 2° C. 60% RH ± 5RH, Initial
[5] = 40° C. ± 2° C. 75% RH ± 5RH, 1 Month
[6] = 40° C. ± 2° C. 75% RH ± 5RH, 3 Months
[7] = 40° C. ± 2° C. 75% RH ± 5RH, Initial

Row | SMILES | hygroscopicity [1] | % Total Impurities [2] | % Water content [2] | Description [2] | % Total Impurities [3] | % Water content [3] | Description [3] | % Total Impurities [4] | % Water content [4] | Description [4] | PXRD [4] | % Total Impurities [5] | % Water content [5] | Description [5] | % Total Impurities [6] | % Water content [6] | Description [6] | % Total Impurities [7] | % Water content [7] | Description [7] | also measured
1 | C=CC(=O)N1CCC[C@@H](n2nc(-c3ccc(Oc4ccccc4)cc3)c3c(N)ncnc32)C1 [Form D18, Ibrutinib] | non-hygroscopic | 0.46% | 0.10% | White | 0.39% | 0.19% | White | 0.38% | 0.13% | White | Crystalline | 0.45% | 0.16% | White | 0.45% | 0.29% | White | 0.38% | 0.13% | White | Octanoic acid content (%) [2]: 24.70%; Octanoic acid content (%) [3]: 25.57%; Octanoic acid content (%) [4]: 25.24%; Octanoic acid content (%) [5]: 24.70%; Octanoic acid content (%) [6]: 24.99%; Octanoic acid content (%) [7]: 25.24%; PXRD [7]: Crystalline
2 | C=CC(=O)N1CCC[C@@H](n2nc(-c3ccc(Oc4ccccc4)cc3)c3c(N)ncnc32)C1 [Form D19, Ibrutinib] | non-hygroscopic | 0.42% | 0.20% | Off-White | 0.42% | 0.09% | Off-White | 0.41% | 0.19% | Off-White | Crystalline | 0.49% | 0.13% | Off-White | 0.50% | 0.11% | Off-White | 0.41% | 0.19% | Off-White | Hexanoic acid content (%) [2]: 21.73%; Hexanoic acid content (%) [3]: 21.24%; Hexanoic acid content (%) [4]: 23.13%; Hexanoic acid content (%) [5]: 21.48%; Hexanoic acid content (%) [6]: 20.79%; Hexanoic acid content (%) [7]: 23.13%; PXRD [7]: Crystalline

Reference: patent US20210002282A1 (DR. REDDY'S LABORATORIES LIMITED, priority 2018, published 2021)
